Counter-ions that a name gives are not always drawn. One block for each compound: values may come before it.
Assays:
S1P1 [1] = biological target: T1, S1P1 (Homo sapiens, UniProt P21453); experiment: S1P1 internalization assay in S1P1-U2OS cells (cell imaging); type: cell-based; set-up: host or cells: U2OS (human bone osteosarcoma epithelial cells); conditions: U2OS cells expressing S1P1-EGFP, 384-well format
In short: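 U2OS cells stably expressing human S1P1-EGFP, serum-starved 2 h in medium with 0.1% fatty-acid-free BSA, then compound 1 h at 37° C. After fixation and Hoechst nuclear stain, receptor internalization imaged as EGFP spot count per nucleus.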
Target sequence in this assay (P21453 whole entry): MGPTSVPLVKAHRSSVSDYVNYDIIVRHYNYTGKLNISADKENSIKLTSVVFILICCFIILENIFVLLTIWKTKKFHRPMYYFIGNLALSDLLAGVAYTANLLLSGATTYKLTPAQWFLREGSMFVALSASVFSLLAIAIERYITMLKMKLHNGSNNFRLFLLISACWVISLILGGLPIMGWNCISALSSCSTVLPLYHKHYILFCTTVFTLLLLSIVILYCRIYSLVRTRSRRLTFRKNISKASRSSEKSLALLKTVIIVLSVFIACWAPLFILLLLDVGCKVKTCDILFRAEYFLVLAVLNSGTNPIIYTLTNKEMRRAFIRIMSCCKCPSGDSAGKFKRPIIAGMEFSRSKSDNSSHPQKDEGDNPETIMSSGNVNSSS

lymphocytes = experiment: Model of S1P agonists-induced lymphopenia in mice; type: in vivo; conditions: oral route, 30 mpk
Method: (§1) Female C57BL/6 mice (Elevage Janvier) (8 week old) receive S1P agonists by oral route. Blood is sampled in heparinized (100 IU/kg, ip) mice by intracardiac or retroorbital puncture under isoflurane anesthesia 2 to 120 hrs after drug treatment. The white blood cells (lymphocytes and neutrophils) are counted using a Beckman/Coulter counter. The quality of blood sampling is assessed by counting erythocytes and platelets.

[2] = Pharmacokinetics from lymphopenia study (mouse); type: in vivo; conditions: PK-PD (30 mpk)
Method: as §1
The pharmacokinetic properties of compound of example 31, 2-({2-Fluoro-4-[5-(2′-methyl-2-trifluoromethyl-biphenyl-4-yl)-[1,2,4]oxadiazol-3-yl]-benzyl}-methyl-amino)-2-methyl-propionic acid, are the following: […]

S1P3 = S1P3 (Homo sapiens, UniProt Q99500); experiment: Receptor binding assay, [33P]sphingosine 1-phosphate competition, membranes of CHO cells expressing S1P3; conditions: 384 well plate; read-out: S1P3 Binding Ki [M] (384 well plate)
In short: (§2)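 SPA competition on CHO membranes with [33P]S1P at 30 pM (S1P1) or 15 pM (S1P3), in 50 mM HEPES pH 7.5, 5 mM MgCl2, 100 mM NaCl, 0.4% fatty acid-free BSA, 60 min at RT. Non-specific binding defined by 1000-fold unlabeled S1P; Ki values reported.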

S1P1 [3] = biological target: T1, S1P1; experiment: Receptor binding assay, [33P]sphingosine 1-phosphate competition, membranes of CHO cells expressing S1P1; conditions: 384 well plate; read-out: S1P1 Binding Ki [M] (384 well plate)
In short: as §2
Target sequence in this assay (P21453 whole entry, species assumed): as the sequence (P21453 whole entry) above

[4] = female, C57BL/6, plasma, 30 mg/kg, oral route

S1P3, sequence (Q99500 whole entry, species assumed): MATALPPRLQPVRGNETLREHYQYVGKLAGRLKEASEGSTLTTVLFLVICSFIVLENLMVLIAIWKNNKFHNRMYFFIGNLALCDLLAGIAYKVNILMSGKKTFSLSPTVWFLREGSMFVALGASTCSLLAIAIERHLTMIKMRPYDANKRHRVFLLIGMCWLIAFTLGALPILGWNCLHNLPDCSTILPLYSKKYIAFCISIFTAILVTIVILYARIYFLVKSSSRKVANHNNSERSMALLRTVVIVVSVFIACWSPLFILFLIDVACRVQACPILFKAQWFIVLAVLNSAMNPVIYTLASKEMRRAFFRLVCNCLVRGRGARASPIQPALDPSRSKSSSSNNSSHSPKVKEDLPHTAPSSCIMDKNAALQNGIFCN

- melting point: 176 °C
Compound: Cc1cc(-c2nc(-c3cccc(C(C)NCC(=O)O)c3)no2)ccc1-c1ccccc1C(F)(F)F (stereo not shown) (as salt: hydrochloride) [Example 38, N-[1-(3-{5-[2-methyl-2′-(trifluoromethyl)biphenyl-4-yl]-1,2,4-oxadiazol-3-yl}phenyl)ethyl]glycine, hydrochloride salt]

- melting point: 204 °C
Compound: Cc1ccccc1-c1ccc(-c2nc(-c3ccc(C(C)N(C)CC(=O)O)cc3)no2)cc1C(F)(F)F (stereo not shown) (as salt: hydrochloride) [Example 40, N-methyl-N-[1-(4-{5-[2′-methyl-2-(trifluoromethyl)biphenyl-4-yl]-1,2,4-oxadiazol-3-yl}phenyl)ethyl]glycine, hydrochloride salt]

- melting point: 214 °C
Compound: CCC(NCc1ccc(-c2noc(-c3ccc(-c4ccccc4C)c(C(F)(F)F)c3)n2)cc1F)C(=O)O (stereo not shown) (as salt: hydrochloride) [Example 41, 2-[(2-fluoro-4-{5-[2′-methyl-2-(trifluoromethyl)biphenyl-4-yl]-1,2,4-oxadiazol-3-yl}benzyl)amino]butanoic acid, hydrochloride salt]

- melting point: 177 °C
Compound: Cc1ccccc1-c1ccc(-c2nc(-c3cccc(C(C)NCC(=O)O)c3)no2)cc1C(F)(F)F (stereo not shown) (as salt: hydrochloride) [Example 42, N-[1-(3-{5-[2′-methyl-2-(trifluoromethyl)biphenyl-4-yl]-1,2,4-oxadiazol-3-yl}phenyl)ethyl]glycine, hydrochloride salt]

- EC50 (S1P1 [1]): 36.6 nM
- Lymphe node/plasma ratio: 24 h ([2]; 24 h): 2.5
- Lymphe node/plasma ratio: 48 h ([2]; 48 h): 2.7
- CI/F ([2]; oral route): 6.7 mL/min/kg
- Kp ([2]; female, C57BL/6, brain/plasma, oral, 30 mg/kg, ratio of AUCz, read-out: Brain/plasma ratio: AUCZ (h*ng/ml)): 3.5
- AUC(0-inf) [2, 4]: 75000 ng·h/mL
- Cmax [2, 4]: 7420 ng/mL
- Tmax [2, 4]: 2 h
- half-life ([2]; female, C57BL/6, plasma, 30 mg/kg, oral route, read-out: T½ (converted)): 6.3 h
- Ki (S1P3): 2.54e-06 M
- Ki (S1P1 [3]): 5.32e-09 M
Compound: Cc1ccccc1-c1ccc(-c2nc(-c3ccc(CN(C)C(C)(C)C(=O)O)c(F)c3)no2)cc1C(F)(F)F [Example 31, 2-({2-Fluoro-4-[5-(2′-methyl-2-trifluoromethyl-biphenyl-4-yl)-[1,2,4]oxadiazol-3-yl]-benzyl}-methyl-amino)-2-methyl-propionic acid]
- % of lymphopenia in mouse at 48 h (lymphocytes): % of lymphopenia in mouse at 48 h 67 +/− 6

Reference: US9029405B2, “5-(biphenyl-4-yl)-3-phenyl-1,2,4-oxadiazolyl derivatives as ligands on the sphingosine 1-phosphate(SIP)receptors” (Merck Serono S.A., priority 2010, dated 2015)
